Measured values as given in US9758477B2, “Sulfamoylbenzamide derivatives as antiviral agents against HBV infection” (priority 2011, dated 2017).

Assays:
AML12HBV10 cells = assay: Cytotoxicity in AML12HBV10 cells, MTT assay; assay type: cell-based, murine; conditions: Table 10, AML12HBV10 cells, unit inferred; read-out: AML12HBV10 CC50
Description: (§1) Determination of cytotoxicity of compounds of the disclosure in AML12HBV10 cells: To determine the cytotoxicity of the compounds, AML12HBV10 cells were seeded into 96-well plates at a density of 2×10^4 cells per well and cultured in DMEM/F12 media with 10% fetal bovine serum in the absence of tetracycline to allow pgRNA transcription and HBV DNA replication. One day after seeding, cells were left untreated or treated with a serial dilution of testing compounds, ranging from 50 μM to 0.39 μM, for 48 hours. The cell viability was measured by a MTT assay, following procedure provided by the manufacturer (Promega). The cytotoxicity of a compound was expressed as the concentration of compound that reduces the viability of the cells by 50% (CC50).

[1] = Cytotoxicity in AML12HBV10 cells, MTT assay; assay type: cell-based, murine; conditions: mouse; AML12HBV10 cells, 48 hours, MTT; read-out: CC50 (cellular toxicity)
Description: as §1

HBV mRNA = assay: Analysis of HBV mRNA by Northern blot in AML12HBV10 cells; assay type: cell-based, Hepatitis B virus (HBV); conditions: 2 days, FIG. 3 panel A
Description: To obtain mechanistic insight of the compounds of present invention against HBV, AML12HBV10 cells cultured in the 12-well plates were treated with a series of concentrations of DVR-1, DVR-56 or DVR-23 for two days in the absence of tetracycline (Guo et al., 2007). As positive controls, the cells were also treated with Bay41-4109 (5 μM) or AT-61 (25 μM), the known HBV nucleocapsid assembly effectors that either bind to HBV core protein dimmer to misdirect its interaction and prevent capsid formation (Bay41-4109) (Deres et al., 2003: Stray and Zlotnick, 2006), or interact with a core assembly intermediate and promote the formation of empty capsids (AT-61) (Feld et al., 2007; Katen et al., King et al., 1998). The amounts of intracellular viral mRNA, encapsidated pgRNA, capsids and nucleocapsid-associated HBV DNA were analyzed with the methods detailed below.
Procedure for analysis of HBV mRNA: Upon the completion of treatment, total cellular RNA was extracted with TRIzol reagents (Invitrogen). Five micrograms of total RNA was resolved in 1.5% agarose gel containing 2.2 M formaldehyde and transferred onto Hybond-XL membrane in 20×SSC buffer. The amounts of HBV mRNA were determined by Northern blot hybridization with an alpha-^32P-UTP labeled riboprobe specific for plus strand of HBV genome.

[2] = Cytotoxicity in HepDES19 cells, MTT assay; assay type: cell-based; conditions: human, Table 10, HepDES19 cells, unit inferred
Description: as §1, with “human hepatoma-derived cell lines, HepDES19” for “AML12HBV10 cells: To determine the cytotoxicity of the compounds, AML12HBV10”, “2×10^4” left out, “tetracycline.” for “tetracycline to allow pgRNA transcription and HBV DNA replication.”, “6 days.” for “48 hours.”

O=C(Nc1ccc(F)c(F)c1)c1cc(S(=O)(=O)NC2CCCC2)ccc1F [DVR-56, 5-cyclopentylsulfamoyl-N-(3,4-difluoro-phenyl)-2-fluoro-benzamide]
CC50 (AML12HBV10 cells): > 50 µM
CC50 at 48 h [1]: > 50 µM
amount of viral mRNA (HBV mRNA): did not affect
CC50 at 6 days [2]: > 50 µM

CCC(C)NS(=O)(=O)c1ccc(F)c(C(=O)Nc2ccc(F)c(F)c2)c1 (centres unmarked) [DVR-23, 5-sec-butylsulfamoyl-N-(3,4-difluoro-phenyl)-2-fluoro-benzamide]
CC50 (AML12HBV10 cells): > 50 µM
CC50 at 48 h [1]: > 50 µM
amount of viral mRNA (HBV mRNA): did not affect
CC50 at 6 days [2]: > 50 µM
